Measurements from patent US5679787A, “Process for isomerization of compound of aldose structure into compound of ketose structure, and isomerization agent or accelerator used therein” (priority 1992, dated 1997).

Key:
[1] = Isomerization without enzyme (Example 3), glucose; conditions: remark (1): initial pH 8.0-8.53; for Isomerization ratio Glucose NaOH: blank 32.3%; for Isomerization ratio Glucose Electrolytic water: blank 2.1-3.1%
Method: 200 μl of the 14% or 28% glucose solution and 200 μl of the organogermanium compound solution (pH 8.00 or 8.53) were placed in a small test tube. Also, 200 μl of the 14% or 28% glucose solution and 200 μl of the weakly alkaline electrolytic water were placed in a small test tube. Each test tube was thoroughly shaken and then placed in a water bath of 80° C. to give rise to a reaction. […] Thereafter, the mixture was diluted 100-fold with deionized water to determine the amount of formed fructose and the amount of residual glucose by high-performance liquid chromatography using 7A (a column) manufactured by Shimadzu Corp. […]

[2] = Isomerization without enzyme (Example 3), mannose; conditions: remark (2): reaction time 6 h, initial pH 10.0-10.6; for Isomerization ratio Mannose NaOH: blank 3.9-19.5%; for Isomerization ratio Mannose Electrolytic water: blank 0.4-1.2%
[3] = Isomerization without enzyme (Example 3), arabinose; conditions: remark (2):, initial pH 10.0-10.6; for Isomerization ratio Arabinose NaOH: blank 3.9-19.5%; for Isomerization ratio Arabinose Electrolytic water: blank 0.4-1.2%
[4] = Isomerization without enzyme (Example 3), ribose; conditions: remark (2): reaction time 6 h, initial pH 10.0-10.6; for Isomerization ratio Ribose NaOH: blank 3.9-19.5%; for Isomerization ratio Ribose Electrolytic water: blank 0.4-1.2%
[5] = Isomerization without enzyme (Example 3), xylose; conditions: remark (2): reaction time 6 h, initial pH 10.0-10.6; for Isomerization ratio Xylose NaOH: blank 3.9-19.5%; for Isomerization ratio Xylose Electrolytic water: blank 0.4-1.2%
Method: [The procedure below names another target; the source says it served here with some conditions changed.] (§1) 200 μl of the 14% or 28% glucose solution and 200 μl of the organogermanium compound solution (pH 8.00 or 8.53) were placed in a small test tube. Also, 200 μl of the 14% or 28% glucose solution and 200 μl of the weakly alkaline electrolytic water were placed in a small test tube. Each test tube was thoroughly shaken and then placed in a water bath of 80° C. to give rise to a reaction. 1-3 hours later, 50 μl of the reaction mixture was added to 50 μl of 0.5N HClO4 to terminate the reaction. Thereafter, the mixture was diluted 100-fold with deionized water to determine the amount of formed fructose and the amount of residual glucose by high-performance liquid chromatography using 7A (a column) manufactured by Shimadzu Corp.
Other compounds represented by formula (I) were subjected to 3-hour isomerization in the same manner as in Example 2.

[6] = Isomerization without enzyme (Example 3), lactose; conditions: remark (3): reaction time 6 h, initial pH 10.0-11.0; for Isomerization ratio Lactose NaOH: blank 34.0-38.6%; for Isomerization ratio Lactose Electrolytic water: blank 0-0.4%
[7] = Isomerization without enzyme (Example 3), maltose; conditions: remark (3): reaction time 6 h, initial pH 10.0-11.0; for Isomerization ratio Maltose NaOH: blank 34.0-38.6%; for Isomerization ratio Maltose Electrolytic water: blank 0-0.4%
[8] = test system: glucose isomerase; test: Enzymatic isomerization of glucose into fructose in presence of organogermanium compound (Example 1); type: biochemical, Streptomyces griseofuscus S-41; conditions: 60° C., pH 8.0, substrate solution 40% glucose and 1.2M organogermanium compound, blank 50%
Method: A solution containing 40% glucose and 1.2M organogermanium compound was prepared according to the following procedure. 0.8 g of anhydrous glucose was dissolved in 0.8 ml of deionized water. To the solution was added, in small portions, 0.407 g of the organogermanium compound (1) as an isomerization accelerator of the present invention [a compound represented by formula (II) wherein n=1, R1 =R2 =R3 and X1 =OH] while the pH of the solution was maintained at very weak alkalinity, to completely dissolve the compound in the solution. Thereto was added 4.9 mg of magnesium sulfate, and the pH of the resulting mixture was adjusted to 8.0. Then, deionized water was added to make the total volume 2.0 ml, whereby a substrate solution was prepared.
Two other substrate solutions containing the organogermanium compounds (18) [a compound represented by formula (II) wherein n=1, R1 =R2 =H, R3 =NH2 and X1 =OH] and (23) [a compound represented by formula (II) wherein n=1, R1 =H, R2 =C6 H5, R3 =NH2 and X1 =OH], respectively, were prepared in the same manner as above except that the organogermanium compounds (18) and (23) were used in amounts of 0.443 g and 0.638 g, respectively (these amounts corresponded to 1.2M of germanium).
An isomerization enzyme (glucose isomerase) extracted from the cells of Streptomyces griseofuscus S-41 was purified according to a known method using an ion exchange column, a gel filtration column or the like, until a single band was obtained electrophoretically. The resulting purified enzyme was used as a standard enzyme.
In a small test tube were placed 0.7 ml of the above substrate solution, 0.1 ml of a 200 mM MOPS buffer solution (pH 8.0) and 0.2 ml of a solution containing the above-prepared standard enzyme (5.69 mg/ml). […] The amount of formed fructose in the microvial was determined by high-performance liquid chromatography using a column [LC7A, SCR-101 (N) manufactured by Shimadzu Corp.] to examine the change with time, of ratio of isomerization of glucose into fructose.

[9] = Isomerization of glucose without enzyme, weakly alkaline electrolytic water or NaOH (Example 2)
Method: Water was passed through an apparatus for electrolysis [e.g. Microcluster (trade name) manufactured by Asahi Glass Co., Ltd.]. The alkaline portion of the resulting electrolytic water was taken to use as a weakly alkaline electrolytic water.
14 g or 28 g of anhydrous glucose was dissolved in about 80 ml of the weakly alkaline electrolytic water prepared above. The same electrolytic water was further added to make the total volume 100 ml, whereby a 14% glucose solution and a 28% glucose solution were prepared. The 14% glucose solution had pH 9.1 and the 28% glucose solution had pH 8.61, right after the preparation.
1.847 g of the organogermanium compound (18) was weighed and added to about 2 ml of deionized water. The mixture was made weakly alkaline (pH 8.00 or 8.53) with a small amount of sodium hydroxide. The same deionized water was further added to make the total volume of 3 ml. The final concentration of the compound (18) in the solution was 1.67M.
as §1

Compound	Isomerization ratio Glucose NaOH [1] [%]	Isomerization ratio Glucose Electrolytic water [1] [%]	Isomerization ratio Mannose NaOH [2] [%]	Isomerization ratio Mannose Electrolytic water [2] [%]	Isomerization ratio Arabinose NaOH [3] [%]	Isomerization ratio Arabinose Electrolytic water [3] [%]	Isomerization ratio Ribose NaOH [4] [%]	Isomerization ratio Ribose Electrolytic water [4] [%]	Isomerization ratio Xylose NaOH [5] [%]	Isomerization ratio Xylose Electrolytic water [5] [%]	Isomerization ratio Lactose NaOH [6] [%]	Isomerization ratio Lactose Electrolytic water [6] [%]	Isomerization ratio Maltose NaOH [7] [%]	Isomerization ratio Maltose Electrolytic water [7] [%]	isomerization ratio in equilibrium [8] [%]	Isomerization ratio (%) ([9]; Run 1 (Ge), glucose concentration 14%, pH of reaction mixture 7.17, electrolytic water, 80° C., 1-3 hours)	Isomerization ratio (%) ([9]; Run 3 (Ge), glucose concentration 7%, pH of reaction mixture 7.52, electrolytic water, 80° C., 1-3 hours)	Isomerization ratio (%) ([9]; Run 5 (Ge), glucose concentration 14%, pH of reaction mixture 7.81, electrolytic water, 80° C., 1-3 hours)	Isomerization ratio (%) ([9]; Run 7 (Ge), glucose concentration 7%, pH of reaction mixture 8.15, electrolytic water, 80° C., 1-3 hours)	Isomerization ratio (%) ([9]; Run 9 (Na, Ge), sodium hydroxide, glucose concentration 14%, pH of reaction mixture 8.61, 80° C.)
C[C](C)(CC(=O)O)[Ge](=[O])[O][Ge](=[O])[C](C)(C)CC(=O)O [Compound 5]	93.4	75.3	20.5	9.7	17.8	3.4	37.6	8.6	20.3	6.1	68.8	17.2	69.4	38.4	–	–	–	–	–	–
CC([CH2][Ge](=[O])[O][Ge](=[O])[CH2]C(C)C(=O)O)C(=O)O (centres unmarked) [Compound 3]	96.3	86.2	21.3	9.3	18.5	10.2	30.0	17.4	24.5	7.6	74.1	28.9	53.7	43.7	–	–	–	–	–	–
CC(C(=O)O)[CH](C)[Ge](=[O])[O][Ge](=[O])[CH](C)C(C)C(=O)O (centres unmarked) [Compound 4]	96.4	77.6	22.4	10.6	14.3	7.0	36.3	10.3	22.3	7.0	66.4	17.7	46.5	36.2	–	–	–	–	–	–
NC(C(=O)O)[CH](c1ccccc1)[Ge](=[O])[O][Ge](=[O])[CH](c1ccccc1)C(N)C(=O)O (centres unmarked) [Compound 23]	–	–	–	–	–	–	–	–	–	–	–	–	–	–	99	–	–	–	–	–
NC([CH2][Ge](=[O])[O][Ge](=[O])[CH2]C(N)C(=O)O)C(=O)O (centres unmarked) [Compound 18]	–	–	–	–	–	–	–	–	–	–	–	–	–	–	80	48.0	73.1	65.0	94.7	98.9
O=C(O)C[CH](c1ccccc1)[Ge](=[O])[O][Ge](=[O])[CH](CC(=O)O)c1ccccc1 (centres unmarked) [Compound 6]	94.8	83.8	22.8	16.4	24.4	13.4	40.1	11.3	33.2	8.3	73.6	15.5	69.3	20.0	–	–	–	–	–	–
C[CH](CC(=O)O)[Ge](=[O])[O][Ge](=[O])[CH](C)CC(=O)O (centres unmarked) [Compound 2]	97.9	95.8	22.6	11.4	20.3	10.1	41.8	12.8	20.3	7.2	68.3	43.4	67.4	44.4	–	–	–	–	–	–
